Tested on: Anaerococcus octavius (Peptostreptococcus octavius)
Test: Filter paper/surface method: inhibition zone and growth under the filter disc
Type: cell-based
Procedure: Weiterhin wurden die Wirkstoffe mit Hilfe des Filterpapier/Oberflächenverfahrens vermessen. Der Testkeim Anaerococcus octavius (Peptostreptococcus octavius) war erhältlich als DSM 10024; er wurde 5 Tage bei 37 °C vorinkubiert. 0,3 ml Wirkstofflösung bzw. 0,3 g wirkstoffhaltiges Produkt wurden auf eine Filterpapierscheibe mit einem Durchmesser von 4,5 cm aufgebracht, anschließend wurde die Filterpapierscheibe auf den bakterienhaltigen Agar gelegt. Nach der Inkubationszeit wurde die Größe des gebildeten Hemmhofes vermessen. Bei den Lösungen, für die kein Hemmhof detektiert werden konnte, weil der Wirkstoff nicht in den Agar penetriert war, wurde zusätzlich das Wachstum unter den Filterpapierscheiben beurteilt.

[1] = 22 Gew.-% Aktivsubstanz, medium Wasser, pH after adjustment ca. 4
[2] = 8 Gew.-% Aktivsubstanz, medium Wasser/ Ethanol (30 Vol.-% / 70 Vol.-%), pH after adjustment 4,2
[3] = 20 Gew.-% Aktivsubstanz, medium Wasser, pH after adjustment 4,2
[4] = 0,5 Gew.-% Aktivsubstanz, medium Wasser, pH tel quel 6,5, after addition of Citronensäure 5,1

With `O=C(O)CCCCCCC/C=C\CCCCCCCC(=O)O` [Arlatone DCA, 9(Z)-Octadecendicarbonsäure] the “Wachstum unter der Filterscheibe” value (2 Gew.-% Aktivsubstanz, medium Ethanol) was “kein Wachstum” and the zone of inhibition at 2 % (Anaerococcus octavius, 2 Gew.-% Aktivsubstanz, medium Ethanol, read-out: Durchmesser des Hemmhofes) was 4 mm.

`CCCCC(CC)COCC(O)CO` (stereo not drawn) [Sensiva SC 50, α-Mono-(2-ethylhexyl)glycerinether] was tested, and the “Wachstum unter der Filterscheibe” value (0,5 Gew.-% Aktivsubstanz, medium Wasser/ Ethanol (50 Vol.-% / 50 Vol.-%), pH tel quel 6,65, after addition of Citronensäure 5,1) was “deutlich gehemmt” and the zone of inhibition at 0.5 % (Anaerococcus octavius, read-out: Durchmesser des Hemmhofes) was 0 mm.

With “Aluminium Zirconium Tetrachlorohydrex Gly [REACH AZP 908 (Powder)]” the “Durchmesser des Hemmhofes” value [1] was 0 mm and the “Wachstum unter der Filterscheibe” value [1] was “kein Wachstum”.

With Aluminium chlorohydrate the “Durchmesser des Hemmhofes” value [2] was 0 mm, the “Wachstum unter der Filterscheibe” value [2] was “deutlich gehemmt” and the “Durchmesser des Hemmhofes” value [3] was 0 mm. The “Wachstum unter der Filterscheibe” value [3] was “leicht gehemmt”.

With Zinkgluconat the “Durchmesser des Hemmhofes” value [4] was 0 mm and the “Wachstum unter der Filterscheibe” value [4] was “deutlich gehemmt”.
